#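 Method: 48-hour compound exposure of cells in 96-well plates, five concentrations, linear interpolation of endpoints. The concentration for 50% growth inhibition is given as GI50. At the TGI there is no net growth.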
# Columns and labels:
# Assay in all cases: NCI tumour cell line growth inhibition, 48 h
# OVCAR-8 ovarian = system: OVCAR-8 ovarian
# HOP-92 NSCLC = system: HOP-92 NSCLC
# LOX IMVI melanoma = system: LOX IMVI melanoma
# CAKI-1 renal = system: CAKI-1 renal
# BT-549 breast = system: BT-549 breast
# HCC-2998 colon = system: HCC-2998 colon
# UACC-62 melanoma = system: UACC-62 melanoma
# SNB-19 CNS = system: SNB-19 CNS
# OVCAR-4 ovarian = system: OVCAR-4 ovarian
# HT29 colon = system: HT29 colon
# U251 CNS = system: U251 CNS
# RPMI-8226 leukemia = system: RPMI-8226 leukemia
# MCF7 breast = system: MCF7 breast
# SK-MEL-5 melanoma = system: SK-MEL-5 melanoma
# NCI-H23 lung = system: NCI-H23 lung
# NCI-H226 lung = system: NCI-H226 lung
# 786-0 renal = system: 786-0 renal
# HL-60(TB) leukemia = system: HL-60(TB) leukemia
# MOLT-4 leukemia = system: MOLT-4 leukemia
# M14 melanoma = system: M14 melanoma
# SF-268 CNS = system: SF-268 CNS
# OVCAR-3 ovarian = system: OVCAR-3 ovarian
# PC-3 prostate = system: PC-3 prostate
# A498 renal = system: A498 renal
# MALME-3M melanoma = system: MALME-3M melanoma
# HS 578T breast = system: HS 578T breast
# NCI-H522 lung = system: NCI-H522 lung
# OVCAR-5 ovarian = system: OVCAR-5 ovarian
# DU-145 prostate = system: DU-145 prostate
# UACC-257 melanoma = system: UACC-257 melanoma
# SNB-75 CNS = system: SNB-75 CNS
# SK-OV-3 ovarian = system: SK-OV-3 ovarian
# SW-620 colon = system: SW-620 colon
# MDA-MB-231 breast = system: MDA-MB-231 breast
# EKVX NSCLC = system: EKVX NSCLC
# UO-31 renal = system: UO-31 renal
# SF-295 CNS = system: SF-295 CNS
# KM12 colon = system: KM12 colon
# A549 NSCLC = system: A549 NSCLC
# SF-539 CNS = system: SF-539 CNS
# IGROV1 ovarian = system: IGROV1 ovarian
# TK-10 renal = system: TK-10 renal
# SN12C renal = system: SN12C renal
# HCT-116 colon = system: HCT-116 colon
# SR leukemia = system: SR leukemia
# MDA-MB-435 = system: MDA-MB-435
# RXF 393 renal = system: RXF 393 renal
# HOP-62 NSCLC = system: HOP-62 NSCLC
# HCT-15 colon = system: HCT-15 colon
# SK-MEL-28 melanoma = system: SK-MEL-28 melanoma
# CCRF-CEM leukemia = system: CCRF-CEM leukemia
# K-562 leukemia = system: K-562 leukemia
# NCI-H460 lung = system: NCI-H460 lung
# COLO 205 colon = system: COLO 205 colon
# T-47D breast = system: T-47D breast
# NCI/ADR-RES ovarian = system: NCI/ADR-RES ovarian
# ACHN renal = system: ACHN renal
smiles,measurement,setting,value
COc1ccc2c(c1)C(=O)/C(=C/c1ccc(O)cc1)O2,GI50,OVCAR-8 ovarian,27.2 µM
same,TGI,OVCAR-8 ovarian,> 75 µM
same,GI50,HOP-92 NSCLC,3.37 µM
same,TGI,HOP-92 NSCLC,9.65 µM
same,GI50,LOX IMVI melanoma,3.29 µM
same,TGI,LOX IMVI melanoma,14 µM
same,GI50,CAKI-1 renal,1.88 µM
same,TGI,CAKI-1 renal,5.66 µM
same,GI50,BT-549 breast,12.7 µM
same,TGI,BT-549 breast,29.8 µM
same,GI50,HCC-2998 colon,17.3 µM
same,TGI,HCC-2998 colon,33.6 µM
same,GI50,UACC-62 melanoma,14.7 µM
same,TGI,UACC-62 melanoma,30.5 µM
same,GI50,SNB-19 CNS,43 µM
same,TGI,SNB-19 CNS,> 100 µM
same,GI50,OVCAR-4 ovarian,5.67 µM
same,TGI,OVCAR-4 ovarian,12.7 µM
same,GI50,HT29 colon,4.14 µM
same,TGI,HT29 colon,14.8 µM
same,GI50,U251 CNS,14.1 µM
same,TGI,U251 CNS,27.2 µM
same,GI50,RPMI-8226 leukemia,1.55 µM
same,TGI,RPMI-8226 leukemia,3.49 µM
same,GI50,MCF7 breast,4.93 µM
same,TGI,MCF7 breast,18.3 µM
same,GI50,SK-MEL-5 melanoma,15.4 µM
same,TGI,SK-MEL-5 melanoma,30.5 µM
same,GI50,NCI-H23 lung,13.9 µM
same,TGI,NCI-H23 lung,34.4 µM
same,GI50,NCI-H226 lung,25.7 µM
same,TGI,NCI-H226 lung,79 µM
same,GI50,786-0 renal,17.9 µM
same,TGI,786-0 renal,41.4 µM
same,GI50,HL-60(TB) leukemia,1.35 µM
same,TGI,HL-60(TB) leukemia,2.95 µM
same,GI50,MOLT-4 leukemia,2.38 µM
same,TGI,MOLT-4 leukemia,6.06 µM
same,GI50,M14 melanoma,15.3 µM
same,TGI,M14 melanoma,34 µM
same,GI50,SF-268 CNS,14.8 µM
same,TGI,SF-268 CNS,41.1 µM
same,GI50,OVCAR-3 ovarian,2.28 µM
same,TGI,OVCAR-3 ovarian,5.29 µM
same,GI50,PC-3 prostate,9.48 µM
same,TGI,PC-3 prostate,24.7 µM
same,GI50,A498 renal,23.2 µM
same,TGI,A498 renal,49.3 µM
same,GI50,MALME-3M melanoma,5.47 µM
same,TGI,MALME-3M melanoma,13.2 µM
same,GI50,HS 578T breast,28.6 µM
same,TGI,HS 578T breast,> 86.3 µM
same,GI50,NCI-H522 lung,1.86 µM
same,TGI,NCI-H522 lung,3.75 µM
same,GI50,OVCAR-5 ovarian,19.2 µM
same,TGI,OVCAR-5 ovarian,38.5 µM
same,GI50,DU-145 prostate,9.45 µM
same,TGI,DU-145 prostate,21.9 µM
same,GI50,UACC-257 melanoma,19.8 µM
same,TGI,UACC-257 melanoma,35.2 µM
same,GI50,SNB-75 CNS,8.82 µM
same,TGI,SNB-75 CNS,> 32.3 µM
same,GI50,SK-OV-3 ovarian,52.7 µM
same,TGI,SK-OV-3 ovarian,> 100 µM
same,GI50,SW-620 colon,3.34 µM
same,TGI,SW-620 colon,8.99 µM
same,GI50,MDA-MB-231 breast,14.2 µM
same,TGI,MDA-MB-231 breast,28.8 µM
same,GI50,EKVX NSCLC,18.6 µM
same,TGI,EKVX NSCLC,> 53.5 µM
same,GI50,UO-31 renal,4.73 µM
same,TGI,UO-31 renal,9.39 µM
same,GI50,SF-295 CNS,23.6 µM
same,TGI,SF-295 CNS,> 66.9 µM
same,GI50,KM12 colon,8.78 µM
same,TGI,KM12 colon,22.8 µM
same,GI50,A549 NSCLC,25.7 µM
same,TGI,A549 NSCLC,67.5 µM
same,GI50,SF-539 CNS,21.6 µM
same,TGI,SF-539 CNS,56.8 µM
same,GI50,IGROV1 ovarian,6.87 µM
same,TGI,IGROV1 ovarian,20.8 µM
same,GI50,TK-10 renal,15 µM
same,TGI,TK-10 renal,31 µM
same,GI50,SN12C renal,14.1 µM
same,TGI,SN12C renal,32 µM
same,GI50,HCT-116 colon,4.42 µM
same,TGI,HCT-116 colon,18.2 µM
same,GI50,SR leukemia,1.79 µM
same,TGI,SR leukemia,4.71 µM
same,GI50,MDA-MB-435,6.73 µM
same,TGI,MDA-MB-435,20.5 µM
same,GI50,RXF 393 renal,11 µM
same,TGI,RXF 393 renal,26 µM
same,GI50,HOP-62 NSCLC,55.2 µM
same,TGI,HOP-62 NSCLC,> 100 µM
same,GI50,HCT-15 colon,4.2 µM
same,TGI,HCT-15 colon,15.8 µM
same,GI50,SK-MEL-28 melanoma,14.3 µM
same,TGI,SK-MEL-28 melanoma,29.6 µM
same,GI50,CCRF-CEM leukemia,1.63 µM
same,TGI,CCRF-CEM leukemia,3.54 µM
same,GI50,K-562 leukemia,2.58 µM
same,TGI,K-562 leukemia,> 24.8 µM
same,GI50,NCI-H460 lung,20.3 µM
same,TGI,NCI-H460 lung,50.3 µM
same,GI50,COLO 205 colon,2.77 µM
same,TGI,COLO 205 colon,8.97 µM
same,GI50,T-47D breast,7.27 µM
same,TGI,T-47D breast,37.6 µM
same,GI50,NCI/ADR-RES ovarian,26.1 µM
same,TGI,NCI/ADR-RES ovarian,> 83.6 µM
same,GI50,ACHN renal,4 µM
same,TGI,ACHN renal,10.9 µM

# Reference: PubChem BioAssay (NCI)
